Tested on: 565726-208-R1-J5-PDC complex spheroids, growth inhibition
Experiment: Anticancer human tumor 565726-208-R1-J5-PDC patient-derived pancreatic adenocarcinoma cell line growth inhibition [RAS]
Conditions: for IC50: curve of first compound; for viability, T/C: stronger effect = lower value
Summary of the method: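 Agents were tested in combination matrices in half-log decrements from a top concentration at or near clinical Cmax (10 microM if undetermined). Targets were multi-cell spheroids of tumour lines plus HUVEC and MSC stromal cells.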
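Also: spheroids exposed to compounds for seven days before readout.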
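For viability, T/C in this document: 100% = DMSO vehicle control viability.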

`CCN1CCN(Cc2ccc(Nc3ncc(F)c(-c4cc(F)c5nc(C)n(C(C)C)c5c4)n3)nc2)CC1` + C#Cc1c(F)ccc2cc(O)cc(-c3ncc4c(N5CC6CCC(C5)N6)nc(OCC56CCCN5CC(F)C6)nc4c3F)c12 was tested, and the IC50 (second compound 0.0316 µM) was > 1000 nM, the IC50 (second compound 0.1 µM) was > 1000 nM and the IC50 (second compound 0.316 µM) was > 1000 nM. For the same molecule, the IC50 (second compound 1 µM) was > 1000 nM, the IC50 (second compound 3.16 µM) was 92.8 nM and the IC50 (second compound 10 µM) was 61.2 nM. For the same molecule, the viability, T/C (second compound 0.0316 µM, first compound 0.00316 µM) was 83.6%, the viability, T/C (second compound 0.0316 µM, first compound 0.01 µM) was 130% and the viability, T/C (second compound 0.0316 µM, first compound 0.0316 µM) was 74.6%. For the same molecule, the viability, T/C (second compound 0.0316 µM, first compound 0.1 µM) was 79.2%, the viability, T/C (second compound 0.0316 µM, first compound 0.316 µM) was 86.8% and the viability, T/C (second compound 0.0316 µM, first compound 1 µM) was 89.1%. For the same molecule, the viability, T/C (second compound 0.1 µM, first compound 0.00316 µM) was 109%, the viability, T/C (second compound 0.1 µM, first compound 0.01 µM) was 122% and the viability, T/C (second compound 0.1 µM, first compound 0.0316 µM) was 75.6%. It also gave a viability, T/C (second compound 0.1 µM, first compound 0.1 µM) of 66.9%, a viability, T/C (second compound 0.1 µM, first compound 0.316 µM) of 76.5% and a viability, T/C (second compound 0.1 µM, first compound 1 µM) of 101%. It also gave a viability, T/C (second compound 0.316 µM, first compound 0.00316 µM) of 116%, a viability, T/C (second compound 0.316 µM, first compound 0.01 µM) of 143% and a viability, T/C (second compound 0.316 µM, first compound 0.0316 µM) of 67.8%. It also gave a viability, T/C (second compound 0.316 µM, first compound 0.1 µM) of 64.1%, a viability, T/C (second compound 0.316 µM, first compound 0.316 µM) of 77.5% and a viability, T/C (second compound 0.316 µM, first compound 1 µM) of 82.4%. It also gave a viability, T/C (second compound 1 µM, first compound 0.00316 µM) of 127%, a viability, T/C (second compound 1 µM, first compound 0.01 µM) of 115% and a viability, T/C (second compound 1 µM, first compound 0.0316 µM) of 87%. The viability, T/C (second compound 1 µM, first compound 0.1 µM) was 61.2%, the viability, T/C (second compound 1 µM, first compound 0.316 µM) was 46.8% and the viability, T/C (second compound 1 µM, first compound 1 µM) was 72.5%. The viability, T/C (second compound 3.16 µM, first compound 0.00316 µM) was 99.1%, the viability, T/C (second compound 3.16 µM, first compound 0.01 µM) was 105% and the viability, T/C (second compound 3.16 µM, first compound 0.0316 µM) was 57.6%. It also gave a viability, T/C (second compound 3.16 µM, first compound 0.1 µM) of 56.6%, a viability, T/C (second compound 3.16 µM, first compound 0.316 µM) of 46.2% and a viability, T/C (second compound 3.16 µM, first compound 1 µM) of 45.6%. For the same molecule, the viability, T/C (second compound 10 µM, first compound 0.00316 µM) was 87.7%, the viability, T/C (second compound 10 µM, first compound 0.01 µM) was 78.5% and the viability, T/C (second compound 10 µM, first compound 0.0316 µM) was 56.9%. The viability, T/C (second compound 10 µM, first compound 0.1 µM) was 41.4%, the viability, T/C (second compound 10 µM, first compound 0.316 µM) was 44.3% and the viability, T/C (second compound 10 µM, first compound 1 µM) was 28.9%.

In the case of `CCN1CCN(Cc2ccc(Nc3ncc(F)c(-c4cc(F)c5nc(C)n(C(C)C)c5c4)n3)nc2)CC1` + CCn1c(-c2cccnc2C(C)OC)c2c3cc(ccc31)N1CCOC(CC(NC(=O)C(C(C)C)N(C)C(=O)C3(F)CCN(C(=O)C#CC(C)(C)N(C)C)CC3)C(=O)N3CCCC(N3)C(=O)OCC(C)(C)C2)C1, the IC50 (second compound 0.000949 µM) is reported as > 1000 nM, the IC50 (second compound 0.003 µM) is reported as > 1000 nM and the IC50 (second compound 0.00949 µM) is reported as > 1000 nM. For the same molecule, the IC50 (second compound 0.03 µM) was > 1000 nM, the IC50 (second compound 0.0949 µM) was > 1000 nM and the IC50 (second compound 0.3 µM) was > 1000 nM. It also gave a viability, T/C (second compound 0.000949 µM, first compound 0.00316 µM) of 93.5%, a viability, T/C (second compound 0.000949 µM, first compound 0.01 µM) of 91.2% and a viability, T/C (second compound 0.000949 µM, first compound 0.0316 µM) of 80.6%. The viability, T/C (second compound 0.000949 µM, first compound 0.1 µM) was 74%, the viability, T/C (second compound 0.000949 µM, first compound 0.316 µM) was 59.3% and the viability, T/C (second compound 0.000949 µM, first compound 1 µM) was 56.2%. It also gave a viability, T/C (second compound 0.003 µM, first compound 0.00316 µM) of 105%, a viability, T/C (second compound 0.003 µM, first compound 0.01 µM) of 96% and a viability, T/C (second compound 0.003 µM, first compound 0.0316 µM) of 84.3%. For the same molecule, the viability, T/C (second compound 0.003 µM, first compound 0.1 µM) was 74.7%, the viability, T/C (second compound 0.003 µM, first compound 0.316 µM) was 60.4% and the viability, T/C (second compound 0.003 µM, first compound 1 µM) was 61%. The viability, T/C (second compound 0.00949 µM, first compound 0.00316 µM) was 97.7%, the viability, T/C (second compound 0.00949 µM, first compound 0.01 µM) was 89.8% and the viability, T/C (second compound 0.00949 µM, first compound 0.0316 µM) was 84.4%. For the same molecule, the viability, T/C (second compound 0.00949 µM, first compound 0.1 µM) was 69.4%, the viability, T/C (second compound 0.00949 µM, first compound 0.316 µM) was 64.3% and the viability, T/C (second compound 0.00949 µM, first compound 1 µM) was 56%. The viability, T/C (second compound 0.03 µM, first compound 0.00316 µM) was 91.5%, the viability, T/C (second compound 0.03 µM, first compound 0.01 µM) was 94.3% and the viability, T/C (second compound 0.03 µM, first compound 0.0316 µM) was 85.1%. For the same molecule, the viability, T/C (second compound 0.03 µM, first compound 0.1 µM) was 72.7%, the viability, T/C (second compound 0.03 µM, first compound 0.316 µM) was 62% and the viability, T/C (second compound 0.03 µM, first compound 1 µM) was 57.4%. It also gave a viability, T/C (second compound 0.0949 µM, first compound 0.00316 µM) of 95%, a viability, T/C (second compound 0.0949 µM, first compound 0.01 µM) of 94.7% and a viability, T/C (second compound 0.0949 µM, first compound 0.0316 µM) of 85.7%. The viability, T/C (second compound 0.0949 µM, first compound 0.1 µM) was 67.9%, the viability, T/C (second compound 0.0949 µM, first compound 0.316 µM) was 54.1% and the viability, T/C (second compound 0.0949 µM, first compound 1 µM) was 59.5%. The viability, T/C (second compound 0.3 µM, first compound 0.00316 µM) was 85%, the viability, T/C (second compound 0.3 µM, first compound 0.01 µM) was 82.1% and the viability, T/C (second compound 0.3 µM, first compound 0.0316 µM) was 76.5%. The viability, T/C (second compound 0.3 µM, first compound 0.1 µM) was 64.1%, the viability, T/C (second compound 0.3 µM, first compound 0.316 µM) was 56.2% and the viability, T/C (second compound 0.3 µM, first compound 1 µM) was 55.3%.
